Several values for one entry are separate records, joined by “and”; a condition that tells them apart may be missing. Equal entries are not always repeated.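 Test compounds were applied to cells in 96-well plates for 48 hours at 5 doses. GI50: concentration for 50% inhibition of growth. TGI is the concentration that stops growth completely.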

The values below come from PubChem BioAssay (NCI).

Assay in all cases: NCI-60 cell line screen, 48 h
In assay [1] the test system is SN12C renal.
The subject of assay [2] is MALME-3M melanoma.
Assay [3] deals with HOP-62 NSCLC.
Assay [4] relates to NCI-H226 lung.
The subject of assay [5] is HL-60(TB) leukemia.
In assay [6] the test system is BT-549 breast.
The test system of assay [7] is SNB-19 CNS.
Assay [8] relates to SF-268 CNS.
In assay [9] the test system is RPMI-8226 leukemia.
In assay [10] the test system is SK-OV-3 ovarian.

Turning to `CC(C)=CC1C(COC(=O)c2ccccc2Cl)C1(C)C` (configuration not stated), the TGI was greater than 100 µM in [1]; 70.3 µM in assay [2]; greater than 100 µM in assay [3]; 82.2 µM in assay [4]; 67.7 µM in assay [5]; 95.1 µM in assay [6]. For the same compound, the TGI in assay [7] and in assay [8] was greater than 100 µM in each case.
Regarding `CCN(CC)CCCC(C)Nc1c2ccc(Cl)cc2nc2cc(Cl)ccc12` (configuration not stated), the TGI in assay [9] came to 5.11 µM; in assay [1], 17.3 µM; in assay [2], 25.5 µM; in assay [3] it was 22.1 µM; in assay [4], 9.76 µM; in assay [5], 4.6 µM. Also, the TGI in assay [10] was determined as 21.9 µM; in assay [7], 40.8 µM; in [8], 16.3 µM.
With `CSC1=C(SC)C(=O)c2cn(C)c(=O)cc2C1=O`, the TGI in [9] is greater than 100 µM; in assay [1] it was 12.3 µM; in assay [2] it was 5.41 µM; in assay [3], 24.8 µM; in assay [4], 40.4 µM; in assay [6] it was 3.71 µM. Besides, the figures for the TGI in assay [10], in assay [7] and in [8] were 31.3 µM, 31.1 µM and 17 µM, respectively.
For `O=S(=O)(Nc1nccs1)c1ccc([As](=O)(O)O)cc1`, the TGI in [9], in [1], in [2], in assay [3], in [4] and in [5] was greater than 100 µM each time. Besides, the TGI in assay [6], in assay [10], in assay [7] and in assay [8] was greater than 100 µM throughout.
Take `CC(C)C(=O)Nc1ccc(-c2nc(-c3cccc(OCCN4CCOCC4)c3)c(-c3ccnc(Br)c3)[nH]2)cc1`: the GI50 in [9] was 1.09 µM; in assay [1], 4.46 µM; in [2], 1.58 µM; in assay [3], 2.94 µM; in assay [4], 3.79 µM; in assay [6], 2.82 µM. The GI50 in assay [10] is 2.45 µM; in [7] it was 3.46 µM; in [8], 4.26 µM. In addition, the TGI in assay [9] was 4 µM; in assay [1] it was greater than 100 µM; in assay [2] it was 3.3 µM; in assay [3], 14.5 µM; in [4], 19.8 µM; in [6], 17.3 µM. Moreover, the figures for the TGI in assay [10], in assay [7] and in assay [8] were 5.53 µM, greater than 100 µM and greater than 100 µM, respectively.
Turning to `COc1ccc(N2C(=O)C(=O)N(C)C2=O)c2ccccc12`, the TGI in assay [9], in assay [1], in assay [2], in [3], in [4] and in assay [5] was greater than 10 µM throughout. In addition, the TGI in assay [10], in assay [7] and in [8] was greater than 10 µM in each case.
For the compound `CC(C(=O)NCCNC(=O)CCCC(=O)N(C)O)C(=O)NCCNC(=O)CCCC(=O)N(C)O`, the TGI in [9], in assay [2], in assay [3], in [4], in [5] and in assay [10] was greater than 100 µM each time. Besides, the TGI in [7] and in assay [8] was greater than 100 µM each time.
Consider `CC(=O)Nc1c2sscc-2n(C)c1=O`, for which the TGI in [9] amounted to 4.48 µM; in [1] it was 3.37 µM; in assay [2], 2.19 µM; in [3], 3.15 µM; in assay [4] it was 3.4 µM; in assay [5], 5.9 µM. Besides, the TGI in assay [6] worked out at 2.76 µM; in [10], 2.84 µM; in assay [7], 3.45 µM; in [8] it was 3.09 µM.
Regarding `CC[C@@]1(O)C(=O)OCc2c1cc1n(c2=O)Cc2cc3c(CN(C)C)c(O)ccc3nc2-1`, the GI50 is 0.163 µM and 0.0818 µM and 0.435 µM in assay [9]; < 0.01 µM and 0.00456 µM and 0.0248 µM in assay [1]; 0.0881 µM and 0.157 µM and 0.39 µM in assay [2]; 0.0102 µM and 0.00621 µM and 0.0163 µM in assay [3]; 0.0153 µM and 0.0964 µM and 0.0626 µM in [4]; 0.0103 µM and 0.00542 µM in assay [5]. The GI50 in assay [7] was < 0.0131 µM and 0.026 µM; in [8] it was < 0.01 µM and 0.00517 µM and 0.0175 µM. For the same compound, in assay [4], the TGI is 1.28 µM [middle of 4 runs].
Take `COC1=CC(=O)c2c(c(COC(C)=O)cn2C)C1=O`: the TGI turned out to be 0.584 µM in assay [9]; 0.325 µM in assay [1]; 0.117 µM in assay [2]; 0.424 µM in assay [4]; 0.694 µM in assay [5]; 0.0911 µM in assay [6]. Further, the results for the TGI in assay [10], in assay [7] and in [8] were 0.677 µM, 8.18 µM and 0.808 µM, respectively.
On to `OC(c1ccccc1)C1CC2C=CC1C2` (configuration not stated), for which the TGI in assay [9], in assay [1], in assay [2], in assay [3], in assay [5] and in assay [10] was greater than 100 µM in each case. For the same compound, the TGI in assay [7] and in assay [8] was greater than 100 µM in each case.
Regarding `CC1(CO)C(O)CCC2(C)C1C(O)CC1CC3CC12CCC3(O)CO` (configuration not stated), the TGI was greater than 196 µM in assay [9]; greater than 225 µM in [1]; greater than 225 µM in [2]; greater than 225 µM in assay [3]; 224 µM in assay [4]; greater than 225 µM in [5]. For the same compound, the TGI in [10], in assay [7] and in assay [8] was greater than 225 µM each time.
Turning to `O=[N+]([O-])c1ccc(Cc2nc3cc4ccccc4cc3[nH]2)cc1C(F)(F)F`, the TGI in [1] is 38 µM; in [2], 25.1 µM; in [3], 27.3 µM; in [5], greater than 100 µM; in assay [6] it was 43 µM; in assay [10], 31 µM. Besides, the TGI in assay [7] and in [8] was 39 µM throughout.
With `O=[N+]([O-])c1ccc(NNN=Nc2ccc(-c3nc4ccccc4[nH]3)cc2)c([N+](=O)[O-])c1`, the TGI in assay [1], in assay [2], in assay [3], in assay [4], in [5] and in assay [6] was greater than 100 µM each time. The TGI in assay [10], in assay [7] and in [8] was greater than 100 µM in each case.
`O=c1ccc2c(Cl)cccc2o1`: the TGI in assay [9], in assay [1], in [2], in assay [3], in [4] and in [5] was greater than 100 µM in each case. For the same compound, the TGI in assay [6], in [7] and in assay [8] was greater than 100 µM each time.
As for `CN(CC(=O)O)CC(=O)O`, the TGI in [9], in assay [1], in [2], in assay [3], in assay [4] and in [5] was greater than 100 µM throughout. In addition, the TGI in assay [6], in assay [10], in assay [7] and in [8] was greater than 100 µM in each case.
Turning to `Clc1ccc(OCc2nnc3sc(SSc4nn5c(COc6ccc(Cl)cc6)nnc5s4)nn23)cc1`, the TGI in [9], in assay [1], in assay [2], in assay [3], in assay [4] and in assay [5] was greater than 100 µM in each case. Further, the TGI in assay [6], in assay [10], in [7] and in assay [8] was greater than 100 µM in each case. Besides, in assay [6], the GI50 was 48.1 µM.
`Fc1ccc(Nc2ncc(-c3cc(F)c(Cl)cc3Cl)s2)cc1Cl`: the GI50 is 9.38 µM in assay [9]; 3.91 µM in [1]; 14 µM in assay [2]; 9.43 µM in assay [3]; 7.92 µM in [4]; 18.1 µM in assay [5]. For the same compound, the GI50 in assay [6] was 20.2 µM; in [10] it was 90.8 µM; in assay [7], greater than 100 µM; in assay [8] it was 5.63 µM. Moreover, the TGI in [9] is 25.1 µM; in assay [1], greater than 100 µM; in assay [2], 31.2 µM; in [3] it was 21.8 µM; in assay [4], greater than 100 µM; in [5], 36.2 µM. Also, the TGI in assay [6] was 45.1 µM; in [10], greater than 100 µM; in [7] it was greater than 100 µM; in assay [8], 20.3 µM.
For `C1=Nc2ccccc2Cn2nncc21`, the TGI in assay [9], in [1], in assay [2], in assay [3], in [4] and in [5] was greater than 100 µM in each case. Also, the TGI in [10], in assay [7] and in [8] was greater than 100 µM throughout.
